Structures can show the parent of a compound that is named as a salt.
Key:
MAO-A = target: T1, MAO-A (Homo sapiens, UniProt P21397); test: Monoamine oxidase assay, MAO-A (kynuramine to 4-hydroxyquinoline fluorescence); type: biochemical; conditions: Ki (IC50) range class; human recombinant MAO-A, kynuramine substrate
T1 construct: purchased Sigma Aldrich
T1 sequence (P21397 1-527): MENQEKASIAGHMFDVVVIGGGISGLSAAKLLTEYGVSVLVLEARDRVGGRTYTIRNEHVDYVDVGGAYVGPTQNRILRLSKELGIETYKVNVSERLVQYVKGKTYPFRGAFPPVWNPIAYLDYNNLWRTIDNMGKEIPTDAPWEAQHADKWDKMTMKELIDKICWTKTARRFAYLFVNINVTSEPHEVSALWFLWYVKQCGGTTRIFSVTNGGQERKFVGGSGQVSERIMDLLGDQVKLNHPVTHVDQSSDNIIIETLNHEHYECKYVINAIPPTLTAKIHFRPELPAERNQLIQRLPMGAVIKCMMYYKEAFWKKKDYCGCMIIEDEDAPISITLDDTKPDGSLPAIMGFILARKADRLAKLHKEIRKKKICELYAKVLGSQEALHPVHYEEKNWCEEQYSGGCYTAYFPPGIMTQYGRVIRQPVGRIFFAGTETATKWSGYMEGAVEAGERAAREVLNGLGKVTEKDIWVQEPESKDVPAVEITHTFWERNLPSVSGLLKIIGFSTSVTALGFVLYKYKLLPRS
Description: (§1) Human recombinant monoamine oxidase proteins MAO-A and MAO-B were purchased from Sigma Aldrich. […] In order to monitor MAO enzymatic activities and/or their inhibition rate by inhibitor(s) of interest, a fluorescent-based (inhibitor)-screening assay was set up. 3-(2-Aminophenyl)-3-oxopropanamine (kynuramine dihydrobromide, Sigma Aldrich), a non fluorescent compound was chosen as a substrate. Kynuramine is a non-specific substrate for both MAOs activities. While undergoing oxidative deamination by MAO activities, kynuramine is converted into 4-hydroxyquinoline (4-HQ), a resulting fluorescent product.
(§2) The monoamine oxidase activity was estimated by measuring the conversion of kynuramine into 4-hydroxyquinoline. Assays were conducted in 96-well black plates with clear bottom (Corning) in a final volume of 100 μL. The assay buffer was 100 mM HEPES, pH 7.5. Each experiment was performed in triplicate within the same experiment.
(§3) The oxidative deamination of the substrate was stopped by adding 50 μL (v/v) of NaOH 2N.
(§4) The Ki of each inhibitor was measure at Vmax/2.

MAO-B = target: T2, MAO-B (Homo sapiens, UniProt P27338); test: Monoamine oxidase assay, MAO-B (kynuramine to 4-hydroxyquinoline fluorescence); type: biochemical; conditions: Ki (IC50) range class; human recombinant MAO-B, kynuramine substrate
T2 construct: purchased Sigma Aldrich
T2 sequence (P27338 1-520): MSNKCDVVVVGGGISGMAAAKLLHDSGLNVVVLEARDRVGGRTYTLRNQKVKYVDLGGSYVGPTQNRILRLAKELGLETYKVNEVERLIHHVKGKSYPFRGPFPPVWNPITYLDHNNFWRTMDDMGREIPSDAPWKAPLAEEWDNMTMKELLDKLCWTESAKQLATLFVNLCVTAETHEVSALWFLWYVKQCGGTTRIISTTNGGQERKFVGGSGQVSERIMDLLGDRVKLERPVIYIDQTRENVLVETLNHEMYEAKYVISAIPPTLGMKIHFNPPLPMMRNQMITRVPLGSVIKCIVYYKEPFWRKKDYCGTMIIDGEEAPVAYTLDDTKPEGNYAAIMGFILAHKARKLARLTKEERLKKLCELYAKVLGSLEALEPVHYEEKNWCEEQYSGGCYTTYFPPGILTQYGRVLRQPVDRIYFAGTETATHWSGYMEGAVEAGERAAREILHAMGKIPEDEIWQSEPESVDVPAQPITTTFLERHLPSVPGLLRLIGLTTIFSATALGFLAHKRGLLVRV
Description: as §1, §2, §3, §4

LSD1 = LSD1 (Homo sapiens, UniProt O60341); test: LSD1 inhibition assay (Amplex Red peroxide/peroxidase-coupled, di-methylated H3-K4 peptide substrate)

Row | Compound | Ki (MAO-A) | Ki (MAO-B) | Ki (LSD1)
1 | NC(=O)CN[C@@H]1C[C@H]1c1ccc(OCc2ccc(F)cc2)cc1 (relative stereo) [Example 4, 2-((trans)-2-(4-(4-fluorobenzyloxy)phenyl)cyclopropylamino)acetamide hydrochloride] | > 40000 nM | 100 to 500 nM | 100 to 500 nM
2 | NC(=O)CN[C@@H]1C[C@H]1c1ccc(OCc2cccc(F)c2)cc1 (relative stereo) [Example 5, 2-((trans)-2-(4-(3-fluorobenzyloxy)phenyl)cyclopropylamino)acetamide hydrochloride] | 5000 to 40000 nM | 100 to 500 nM | 10 to 100 nM
3 | NC(=O)CN[C@@H]1C[C@H]1c1ccc(OCc2cccc(Cl)c2)cc1 (relative stereo) [Example 6, 2-((trans)-2-(4-(3-chlorobenzyloxy)phenyl)cyclopropylamino)acetamide hydrochloride] | > 40000 nM | 100 to 500 nM | 10 to 100 nM
4 | NC(=O)CN[C@@H]1C[C@H]1c1ccc(OCc2ccc(Cl)cc2)cc1 (relative stereo) [Example 7, 2-((trans)-2-(4-(4-chlorobenzyloxy)phenyl)cyclopropylamino)acetamide hydrochloride] | > 40000 nM | 100 to 500 nM | 100 to 500 nM
5 | NC(=O)CN[C@@H]1C[C@H]1c1ccc(OCc2cccc(Br)c2)cc1 (relative stereo) [Example 8, 2-((trans)-2-(4-(3-bromobenzyloxy)phenyl)cyclopropylamino)acetamide] | 5000 to 40000 nM | 100 to 500 nM | 10 to 100 nM
6 | NC(=O)CN[C@@H]1C[C@H]1c1ccc(OCc2cc(F)cc(F)c2)cc1 (relative stereo) [Example 9, 2((trans)-2-(4-(3,5-difluorobenzyloxy)phenyl)cyclopropylamino)acetamide] | 5000 to 40000 nM | 100 to 500 nM | 10 to 100 nM
7 | NC(=O)CN[C@@H]1C[C@H]1c1ccc(OCCc2ccccc2)cc1 (relative stereo) [Example 10, 2-((trans)-2-(4-phenethoxyphenyl)cyclopropylamino)acetamide] | 5000 to 40000 nM | 100 to 500 nM | 10 to 100 nM
8 | NC(=O)CN[C@@H]1C[C@H]1c1ccc(-c2cccc(C(F)(F)F)c2)cc1 (relative stereo) [Example 11, 2-((trans)-2-(3′-(trifluoromethyl)biphenyl-4-yl)cyclopropylamino)acetamide] | 5000 to 40000 nM | 100 to 500 nM | 100 to 500 nM
9 | NC(=O)CN[C@H]1C[C@@H]1c1ccc(-c2ccc(-c3ccccc3)cc2)cc1 (stereo in doubt) [Example 12, 2-(2-[1,1′;4′,1″]Terphenyl-4″-yl-cyclopropylamino)acetamide] | > 40000 nM | 100 to 500 nM | 100 to 500 nM

The remaining lines, values ahead:

Row | Ki (MAO-A) | Ki (MAO-B) | Ki (LSD1) | Compound
10 | 5000 to 40000 nM | 100 to 500 nM | 10 to 100 nM | N#Cc1ccc(COc2ccc([C@@H]3C[C@H]3NCC(N)=O)cc2)cc1 (relative stereo) [Example 1, 2-((trans)-2-(4-(4-cyanobenzyloxy)phenyl)cyclopropylamino)acetamide hydrochloride]
11 | 500 to 5000 nM | 100 to 500 nM | 10 to 100 nM | N#Cc1cccc(COc2ccc([C@@H]3C[C@H]3NCC(N)=O)cc2)c1 (relative stereo) [Example 2, 2-((trans)-2-(4-(3-cyanobenzyloxy)phenyl)cyclopropylamino)acetamide hydrochloride]
12 | 5000 to 40000 nM | 100 to 500 nM | 100 to 500 nM | NC(=O)CN[C@@H]1C[C@H]1c1ccc(OCc2ccccc2)cc1 (relative stereo) [Example 3, 2-((trans)-2-(4-(benzyloxy)phenyl)cyclopropylamino)acetamide]
13 | 500 to 5000 nM | 500 to 5000 nM | 10 to 100 nM | NC(=O)CN[C@@H]1C[C@H]1c1ccc(-c2ccc(Cl)cc2)nc1 (relative stereo) [Example 20, 2-((trans)-2-(6-(4-chlorophenyl)pyridin-3-yl)cyclopropylamino)acetamide]

From patent US8946296B2, “Substituted heteroaryl- and aryl-cyclopropylamine acetamides and their use” (Oryzon Genomics S.A., priority 2009, dated 2015)
